# Reference: paper PMC7106896, “Synthesis and biological evaluation of 2-(4-methylsulfonyl phenyl) indole derivatives: multi-target compounds with dual antimicrobial and anti-inflammatory activities” (BMC Chemistry, 2020)
# “And” between values parts separate entries of the source, which are not always exact repeats. Identical values can stand only once.
# Tests used:
# [1] = system: C. neoformans var. grubii; assay: Minimal inhibitory concentration measurement; type: cell-based; conditions: Cryptococcus neoformans; read-out: MIC Cn (C. neoformans var. grubii)
# Protocol: (§3) The antimicrobial and antifungal screening was performed according to CO-ADD (The Community for Antimicrobial Drug Discovery) procedures [27].
# [2] = system: C. albicans; assay: Minimal inhibitory concentration measurement; type: cell-based; conditions: Candida albicans; read-out: MIC Ca (C. albicans)
# Protocol: as §3
# [3] = system: MRSA; assay: Minimal inhibitory concentration measurement; type: cell-based; conditions: Staphylococcus aureus, read-out: MIC Sa (MRSA)
# Protocol: as §3
# [4] = system: E. coli; assay: Minimal inhibitory concentration measurement; type: cell-based; conditions: Escherichia coli; read-out: MIC Ec (E. coli)
# Protocol: as §3
# [5] = system: P. aeruginosa; assay: Minimal inhibitory concentration measurement; type: cell-based; conditions: Pseudomonas aeruginosa; read-out: MIC Pa (P. aeruginosa)
# Protocol: as §3
# [6] = system: A. baumannii; assay: Minimal inhibitory concentration measurement; type: cell-based; conditions: Acinetobacter baumannii; read-out: MIC Ab (A. baumannii)
# Protocol: as §3
# [7] = system: carrageenan-induced rat paw edema; assay: Carrageenan-induced rat paw edema assay; type: in vivo; conditions: for Edema thickness (mm) ± SEM: n = 4
# Protocol: Pretreatment of rats with compounds 7a–k, 8a–c, and 9a–c before injection with carrageenan in rat paw which induces inflammation and then the percentage of paw edema reduction was measured after certain hours according to previously reported procedures.
# [8] = Cytotoxicity against human embryonic kidney cell line; type: cell-based; conditions: read-out: CC50 (concentration at 50% cytotoxicity)
# Protocol: (§1) The safety margin for the active compounds to human cells was determined through cytotoxicity against human embryonic kidney cell line and hemolysis of human red blood cells. The tested compounds 7a, 7g, and 7i were tolerated and non-toxic to human cells as the cytotoxic and hemolytic dose was higher than the therapeutic dose (Table 2).
# [9] = system: K. pneumoniae
# Protocol: as §3
# [10] = system: human recombinant COX-2; assay: In vitro COX inhibition colorimetric assay; type: biochemical; conditions: COX-1 IC50/COX-2 IC50
# [11] = system: methicillin-resistant Staphylococcus aureus (ATCC 43300); assay: Antimicrobial screening (CO-ADD), growth inhibition at single concentration; type: cell-based; conditions: ATCC 43300 / MRSA, at 32 µg/mL concentration, read-out: growth inhibition % Sa (MRSA)
# Protocol: (§2) The antimicrobial study was performed by CO-ADD (The Community for Antimicrobial Drug Discovery), funded by the Wellcome Trust (UK) and The University of Queensland (Australia). Evaluation of all synthesized compounds for their antimicrobial activities was done against five pathogenic bacteria, methicillin-resistant Staphylococcus aureus (ATCC 43300) as Gram-positive bacteria, Escherichia coli (ATCC 25922), Klebsiella pneumonia (ATCC 700603), Acinetobacter baumannii (ATCC 19606) and Pseudomonas aeruginosa (ATCC 27853) as Gram-negative bacteria and antifungal activity against two pathogenic fungal strains Candida albicans (ATCC 90028) and Cryptococcus neoformans var. grubii (H99; ATCC 208821) (Table 1).
# [12] = system: Acinetobacter baumannii (ATCC 19606); assay: as above; type: cell-based; conditions: ATCC19606, at 32 µg/mL concentration, read-out: growth inhibition % Ab (A. baumannii)
# Protocol: as §2
# [13] = system: Klebsiella pneumonia (ATCC 700603); assay: as above; type: cell-based; conditions: Klebsiella pneumoniae, ATCC700603; at 32 µg/mL concentration; read-out: growth inhibition % Kp (K. pneumoniae)
# Protocol: as §2
# [14] = system: Escherichia coli (ATCC 25922); assay: as above; type: cell-based; conditions: ATCC25922, at 32 µg/mL concentration, read-out: growth inhibition % Ec (E. coli)
# Protocol: as §2
# [15] = system: Pseudomonas aeruginosa (ATCC 27853); assay: as above; type: cell-based; conditions: ATCC27853, at 32 µg/mL concentration, read-out: growth inhibition % Pa (P. aeruginosa)
# Protocol: as §2
# [16] = system: MRSA bacteria and E. coli, K. pneumoniae, P. aeruginosa, and A. baumannii; assay: Antibacterial screening, result pooled over the five bacteria; type: cell-based; conditions: read-out: growth inhibition, range over MRSA, E. coli, K. pneumoniae, P. aeruginosa and A. baumannii
# Protocol: as §2
# [17] = system: human red blood cells; assay: Hemolysis of human red blood cells; type: cell-based
# Protocol: as §1
# [18] = system: Candida albicans (ATCC 90028); assay: Antifungal screening (CO-ADD), growth inhibition at single concentration; type: cell-based; conditions: ATCC90028, at 32 µg/mL concentration, read-out: growth inhibition % Ca (C. albicans)
# Protocol: as §2
# [19] = biological target: T1, Ovine COX-1 (Ovis aries, UniProt P05979); assay: In vitro COX inhibition colorimetric assay; type: biochemical
# T1 construct: purchased Cayman Chemical, Ann Arbor, MI, USA 760111
# T1 sequence (P05979 25-600): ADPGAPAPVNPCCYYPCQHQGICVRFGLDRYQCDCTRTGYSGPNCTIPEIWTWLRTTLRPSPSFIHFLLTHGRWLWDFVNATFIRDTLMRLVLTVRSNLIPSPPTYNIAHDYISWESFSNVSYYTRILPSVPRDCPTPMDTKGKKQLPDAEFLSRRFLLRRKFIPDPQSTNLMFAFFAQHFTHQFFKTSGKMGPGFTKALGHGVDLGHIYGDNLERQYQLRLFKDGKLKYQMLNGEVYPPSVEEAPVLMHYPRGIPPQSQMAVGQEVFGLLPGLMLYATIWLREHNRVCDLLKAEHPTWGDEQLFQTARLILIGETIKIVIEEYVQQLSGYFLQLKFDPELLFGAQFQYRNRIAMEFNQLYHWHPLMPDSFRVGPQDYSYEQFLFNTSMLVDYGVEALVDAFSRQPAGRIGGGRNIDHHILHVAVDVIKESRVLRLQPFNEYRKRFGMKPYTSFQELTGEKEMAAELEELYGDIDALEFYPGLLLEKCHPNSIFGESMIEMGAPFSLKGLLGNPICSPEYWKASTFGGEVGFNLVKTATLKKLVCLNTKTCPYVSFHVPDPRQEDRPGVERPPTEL
Compound,MIC [1],MIC [2],MIC [3],MIC [4],MIC [5],MIC [6],Edema inhibition % ([7]; 1 h),Edema thickness (mm) ± SEM ([7]; 1 h),Edema inhibition % ([7]; 3 h),Edema thickness (mm) ± SEM ([7]; 3 h),Edema inhibition % ([7]; 6 h),Edema thickness (mm) ± SEM ([7]; 6 h),melting point,Selectivity index (SI) [10],inhibition at 32 µg/mL [11],inhibition at 32 µg/mL [12],inhibition at 32 µg/mL [13],inhibition at 32 µg/mL [15],inhibition at 32 µg/mL [18],IC50 [19],other results
"C[C@@H]1[C@H](O)[C@@H](C)/C=C/C=C/C=C/C=C/C=C/C=C/C=C/[C@H](O[C@@H]2O[C@H](C)[C@@H](O)[C@H](N)[C@@H]2O)C[C@@H]2O[C@](O)(C[C@@H](O)C[C@@H](O)[C@H](O)CC[C@@H](O)C[C@@H](O)CC(=O)O[C@H]1C)C[C@H](O)[C@H]2C(=O)O [Amphotericin B, amphotericin B, reference compound]",1.56 µg/mL,1.56 µg/mL,,,,,,,,,,,,,,,,,,,
"CO/N=C(\C(=O)N[C@@H]1C(=O)N2C(C(=O)O)=C(CSc3nc(=O)c(=O)[nH]n3C)CS[C@H]12)c1csc(N)n1 [Ceftriaxone, ceftriaxone, reference compound]",,,32 µg/mL,0.125 µg/mL,32 µg/mL,32 µg/mL,,,,,,,,,,,,,,,
"CS(=O)(=O)c1ccc(-c2[nH]c3ccccc3c2C=NNc2ccc(F)cc2)cc1 [Compound 7a, 3-((2-(4-Fluorophenyl)hydrazono)methyl)-2-(4-(methylsulfonyl)phenyl)-1H-indole]",> 32 µg/mL,> 32 µg/mL,8 µg/mL,≤ 0.25 µg/mL,4 µg/mL,16 µg/mL,74.1%,0.679 ± 0.03 mm,88.7%,0.250 ± 0.021 mm,92%,0.151 ± 0.007 mm,204 to 206 °C,93.81,95.8%,96.7%,97.6%,97.8%,6.28%,10.3 µM,CC50 [8]: > 32 µg/mL; MIC Kp (K. pneumoniae) [9]: 8 µg/mL; inhibition at 32 µg/mL [14]: 96.5%; inhibition at 32 µg/mL [16]: 85.8 to 97.8%; HC10 (concentration at 10% hemolysis) [17]: > 32 µg/mL
"CS(=O)(=O)c1ccc(-c2[nH]c3ccccc3c2C=NNc2ccc(S(N)(=O)=O)cc2)cc1 [Compound 7c, 4-(2-((2-(4-(Methylsulfonyl)phenyl)-1H-indol-3-yl)methylene)hydrazinyl)benzene sulfonamide]",,,,,,,62.7%,0.978 ± 0.071 mm,81.2%,0.419 ± 0.028 mm,82.5%,0.331 ± 0.011 mm,203 to 204 °C,103.7 and 103.72,21.9%,43.3%,12.8%,11.3%,4.13%,11.4 µM,inhibition at 32 µg/mL [14]: 3.17%
"Cc1ccc(NN=Cc2c(-c3ccc(S(C)(=O)=O)cc3)[nH]c3ccc(C)cc23)cc1 [Compound 7g, 5-Methyl-2-(4-(methylsulfonyl)phenyl)-3-((2-(p-tolyl)hydrazono)methyl)-1H-indole]",> 32 µg/mL,> 32 µg/mL,1 µg/mL,≤ 0.25 µg/mL,1 µg/mL,4 µg/mL,58.5%,1.088 ± 0.090 mm,72.3%,0.618 ± 0.010 mm,67.4%,0.618 ± 0.045 mm,166 to 168 °C,39.50,96.2%,85.8%,87.5%,94.6%,4.88%,7.9 µM,CC50 [8]: 4.2 µg/mL; MIC Kp (K. pneumoniae) [9]: 1 µg/mL; inhibition at 32 µg/mL [14]: 86.4%; inhibition at 32 µg/mL [16]: 85.8 to 97.8%; HC10 (concentration at 10% hemolysis) [17]: > 32 µg/mL
"Cc1ccc(NN=Cc2c(-c3ccc(S(C)(=O)=O)cc3)[nH]c3ccc(F)cc23)cc1 [Compound 7k, 5-Fluoro-2-(4-(methylsulfonyl)phenyl)-3-((2-(p-tolyl)hydrazono)methyl)-1H-indole]",,,,,,,55.7%,1.162 ± 0.088 mm,69.1%,0.689 ± 0.011 mm,66.3%,0.638 ± 0.051 mm,151 to 153 °C,39.20,28.2%,31.4%,8.77%,2.23%,1.79%,8.24 µM,
"CS(=O)(=O)c1ccc(-c2[nH]c3ccc(F)cc3c2-c2nc3cc(Cl)ccc3[nH]2)cc1 [Compound 8b, 5-Chloro-2-(5-fluoro-2-(4-(methylsulfonyl)phenyl)-1H-indol-3-yl)-1H-benzo[d] imidazole]",,,,,,,52.1%,1.256 ± 0.074 mm,68.1%,0.712 ± 0.066 mm,76.2%,0.451 ± 0.013 mm,202 to 204 °C,62.73,11.3%,22.4%,6.56%,14.5%,13.2%,9.41 µM,
"CS(=O)(=O)c1ccc(-c2[nH]c3ccc(F)cc3c2C=NO)cc1 [Compound 9b, 5-Fluoro-2-(4-(methylsulfonyl)phenyl)-1H-indole-3-carbaldehyde oxime]",,,,,,,66.2%,,80.5%,0.700 ± 0.024 mm,73.4%,0.726 ± 0.055 mm,226 to 228 °C,44.85,10.3%,33.3%,9.23%,7.9%,2.47%,9.42 µM,
